Legend:
Format in all cases: functional
[1] = tested on: RPMI-8226; assay: Cytotoxicity against human RPMI8226 cells assessed as growth inhibition after 48 hrs by sulforhodamine B assay; conditions: RPMI-8226, 48 h
[2] = tested on: NCI-H23; assay: Cytotoxicity against human NCI-H23 cells assessed as growth inhibition after 48 hrs by sulforhodamine B assay; conditions: NCI-H23, 48 h; for CC50: read-out: LC50 (the source's name)
[3] = tested on: NCI-H322M; assay: Cytotoxicity against human NCI-H322M cells assessed as growth inhibition after 48 hrs by sulforhodamine B assay; conditions: for CC50: read-out: LC50 (the source's name)
[4] = tested on: SW-620; assay: Cytotoxicity against human SW620 cells assessed as growth inhibition after 48 hrs by sulforhodamine B assay; conditions: SW-620, 48 h
[5] = tested on: UACC-62; assay: Cytotoxicity against human UACC62 cells assessed as growth inhibition after 48 hrs by sulforhodamine B assay; conditions: UACC-62, 48 h
[6] = tested on: NCI/ADR-RES; assay: Cytotoxicity against human NCI/ADR-RES cells assessed as growth inhibition after 48 hrs by sulforhodamine B assay
[7] = tested on: SN12C; assay: Cytotoxicity against human SN12C cells assessed as growth inhibition after 48 hrs by sulforhodamine B assay
[8] = tested on: PC-3; assay: Cytotoxicity against human PC3 cells assessed as growth inhibition after 48 hrs by sulforhodamine B assay; conditions: PC-3, 48 h
[9] = tested on: IGROV-1; assay: Cytotoxicity against human IGROV1 cells assessed as cell growth at 0.01 uM after 48 hrs by sulforhodamine B assay relative to control; conditions: IGROV-1, 48 h, read-out: Activity
[10] = tested on: SNB-19; assay: Cytotoxicity against human SNB19 cells assessed as cell growth at 0.01 uM after 48 hrs by sulforhodamine B assay relative to control; conditions: SNB-19, 48 h, read-out: Activity
[11] = tested on: HCT-15; assay: Cytotoxicity against human HCT15 cells assessed as cell growth at 0.01 uM after 48 hrs by sulforhodamine B assay relative to control; conditions: HCT-15, 48 h, read-out: Activity
[12] = tested on: HCC 2998; assay: Cytotoxicity against human HCC2998 cells assessed as cell growth at 0.01 uM after 48 hrs by sulforhodamine B assay relative to control; conditions: HCC 2998, 48 h, read-out: Activity
[13] = tested on: COLO 205; assay: Cytotoxicity against human COLO205 cells assessed as cell growth at 0.01 uM after 48 hrs by sulforhodamine B assay relative to control; conditions: COLO 205, 48 h, read-out: Activity
[14] = tested on: NCI-H522; assay: Cytotoxicity against human NCI-H522 cells assessed as cell growth at 0.01 uM after 48 hrs by sulforhodamine B assay relative to control; conditions: NCI-H522, 48 h, read-out: Activity
[15] = tested on: A549; assay: Cytotoxicity against human A549/ATCC cells assessed as cell growth at 0.01 uM after 48 hrs by sulforhodamine B assay relative to control; conditions: A549, 48 h, read-out: Activity
[16] = tested on: K562; assay: Cytotoxicity against human K562 cells assessed as cell growth at 0.01 uM after 48 hrs by sulforhodamine B assay relative to control; conditions: K562, 48 h, read-out: Activity
[17] = tested on: DU-145; assay: Cytotoxicity against human DU145 cells assessed as cell growth at 0.01 uM after 48 hrs by sulforhodamine B assay relative to control; conditions: DU-145, 48 h, read-out: Activity
[18] = tested on: A549; assay: Cytotoxicity against human A549/ATCC cells assessed as cell growth at 0.1 uM after 48 hrs by sulforhodamine B assay relative to control; conditions: A549, 48 h, read-out: Activity
[19] = tested on: Malme-3M; assay: Cytotoxicity against human MALME-3M cells assessed as cell growth at 0.1 uM after 48 hrs by sulforhodamine B assay relative to control; conditions: read-out: Activity
[20] = tested on: OVCAR-3; assay: Cytotoxicity against human OVCAR3 cells assessed as cell growth at 0.1 uM after 48 hrs by sulforhodamine B assay relative to control; conditions: OVCAR-3, 48 h, read-out: Activity
[21] = tested on: A498; assay: Cytotoxicity against human A498 cells assessed as cell growth at 0.1 uM after 48 hrs by sulforhodamine B assay relative to control; conditions: A498, 48 h, read-out: Activity
[22] = tested on: SNB-19; assay: Cytotoxicity against human SNB19 cells assessed as cell growth at 1 uM after 48 hrs by sulforhodamine B assay relative to control; conditions: SNB-19, 48 h, read-out: Activity
[23] = tested on: U-251; assay: Cytotoxicity against human U251 cells assessed as cell growth at 1 uM after 48 hrs by sulforhodamine B assay relative to control; conditions: U-251, 48 h, read-out: Activity
[24] = tested on: OVCAR-3; assay: Cytotoxicity against human OVCAR3 cells assessed as cell growth at 1 uM after 48 hrs by sulforhodamine B assay relative to control; conditions: OVCAR-3, 48 h, read-out: Activity
[25] = tested on: ACHN; assay: Cytotoxicity against human ACHN cells assessed as cell growth at 1 uM after 48 hrs by sulforhodamine B assay relative to control; conditions: read-out: Activity
[26] = tested on: T47D; assay: Cytotoxicity against human T47D cells assessed as cell growth at 1 uM after 48 hrs by sulforhodamine B assay relative to control; conditions: read-out: Activity
[27] = tested on: HOP-62; assay: Cytotoxicity against human HOP62 cells assessed as cell growth at 10 uM after 48 hrs by sulforhodamine B assay relative to control; conditions: HOP-62, 48 h, read-out: Activity
[28] = tested on: U-251; assay: Cytotoxicity against human U251 cells assessed as cell growth at 10 uM after 48 hrs by sulforhodamine B assay relative to control; conditions: U-251, 48 h, read-out: Activity
[29] = tested on: OVCAR-4; assay: Cytotoxicity against human OVCAR4 cells assessed as cell growth at 10 uM after 48 hrs by sulforhodamine B assay relative to control; conditions: OVCAR-4, 48 h, read-out: Activity
[30] = tested on: SK-OV-3; assay: Cytotoxicity against human SKOV3 cells assessed as cell growth at 10 uM after 48 hrs by sulforhodamine B assay relative to control; conditions: SK-OV-3, 48 h, read-out: Activity
[31] = tested on: Hs-578T; assay: Cytotoxicity against human Hs 578T cells assessed as cell growth at 10 uM after 48 hrs by sulforhodamine B assay relative to control; conditions: read-out: Activity
[32] = tested on: SR; assay: Cytotoxicity against human SR cells assessed as cell growth at 100 uM after 48 hrs by sulforhodamine B assay relative to control; conditions: read-out: Activity
[33] = tested on: HCT-116; assay: Cytotoxicity against human HCT116 cells assessed as cell growth at 100 uM after 48 hrs by sulforhodamine B assay relative to control; conditions: HCT-116, 48 h, read-out: Activity
[34] = tested on: SN12C; assay: Cytotoxicity against human SN12C cells assessed as cell growth at 100 uM after 48 hrs by sulforhodamine B assay relative to control; conditions: read-out: Activity
[35] = tested on: MCF7; assay: Cytotoxicity against human MCF7 cells assessed as cell growth at 100 uM after 48 hrs by sulforhodamine B assay relative to control; conditions: MCF7, 48 h, read-out: Activity
[36] = tested on: MDA-MB-231; assay: Cytotoxicity against human MDA-MB-231 cells assessed as cell growth at 100 uM after 48 hrs by sulforhodamine B assay relative to control; conditions: MDA-MB-231, 48 h, read-out: Activity

Structure (SMILES): COc1ccc(C(=O)/C=C/c2cc(-c3cc(OC)c(OC)c(OC)c3)n[nH]2)cc1OC
- LC50 [1]: > 100 µM
- TGI [1]: 1.11 µM
- TGI [2]: 5.24 µM
- CC50 [2]: 22.7 µM
- TGI [3]: 2.9 µM
- CC50 [3]: 5.51 µM
- LC50 (lethal concentration, 50% net cell kill) [4]: 6.55 µM
- TGI [4]: 2.99 µM
- LC50 [5]: 5.98 µM
- TGI [5]: 3.22 µM
- LC50 [6]: > 100 µM
- TGI [6]: 15.7 µM
- LC50 [7]: 6.37 µM
- TGI [7]: 3.13 µM
- LC50 [8]: 5.76 µM
- TGI [8]: 2.8 µM
- growth at 0.01 µM [9]: 98%
- growth at 0.01 µM [10]: 91%
- growth at 0.01 µM [11]: 97%
- growth at 0.01 µM [12]: 93%
- growth at 0.01 µM [13]: 107%
- growth at 0.01 µM [14]: 83%
- growth at 0.01 µM [15]: 98%
- growth at 0.01 µM [16]: 96%
- growth at 0.01 µM [17]: 104%
- growth at 0.1 µM [18]: 98%
- growth at 0.1 µM [19]: 92%
- growth at 0.1 µM [20]: 100%
- growth at 0.1 µM [21]: 86%
- growth at 1 µM [22]: 73%
- growth at 1 µM [23]: 65%
- growth at 1 µM [24]: 91%
- growth at 1 µM [25]: 91%
- growth at 1 µM [26]: 75%
- growth at 10 µM [27]: -97%
- growth at 10 µM [28]: -100%
- growth at 10 µM [29]: 23%
- growth at 10 µM [30]: -12%
- growth at 10 µM [31]: -9%
- growth at 100 µM [32]: 3%
- growth at 100 µM [33]: -13%
- growth at 100 µM [34]: -86%
- growth at 100 µM [35]: -66%
- growth at 100 µM [36]: -84%

Structure (SMILES): COc1ccc(-c2cc(/C=C/C(=O)c3cc(OC)c(OC)c(OC)c3)[nH]n2)cc1OC
- GI50 [1]: 0.29 µM
- LC50 [1]: > 100 µM
- TGI [1]: 1.66 µM
- GI50 [2]: 1.97 µM
- TGI [2]: 4.91 µM
- CC50 [2]: > 100 µM
- GI50 [3]: 2.02 µM
- TGI [3]: 6.03 µM
- CC50 [3]: 25 µM
- GI50 [4]: 1.5 µM
- LC50 (lethal concentration, 50% net cell kill) [4]: > 100 µM
- TGI [4]: 4.16 µM
- GI50 [5]: 1.79 µM
- LC50 [5]: 8.39 µM
- TGI [5]: 3.88 µM
- GI50 [6]: 2.69 µM
- LC50 [6]: > 100 µM
- TGI [6]: 37 µM
- GI50 [7]: 1.77 µM
- LC50 [7]: 8.26 µM
- TGI [7]: 3.83 µM
- GI50 [8]: 1.99 µM
- LC50 [8]: 48.2 µM
- TGI [8]: 10.3 µM
- growth at 0.01 µM [9]: 103%
- growth at 0.01 µM [10]: 91%
- growth at 0.01 µM [11]: 99%
- growth at 0.01 µM [12]: 95%
- growth at 0.01 µM [13]: 99%
- growth at 0.01 µM [14]: 89%
- growth at 0.01 µM [15]: 101%
- growth at 0.01 µM [16]: 100%
- growth at 0.01 µM [17]: 108%
- growth at 0.1 µM [18]: 98%
- growth at 0.1 µM [19]: 89%
- growth at 0.1 µM [20]: 100%
- growth at 0.1 µM [21]: 89%
- growth at 1 µM [22]: 77%
- growth at 1 µM [23]: 65%
- growth at 1 µM [24]: 84%
- growth at 1 µM [25]: 78%
- growth at 1 µM [26]: 51%
- growth at 10 µM [27]: -57%
- growth at 10 µM [28]: -97%
- growth at 10 µM [29]: -11%
- growth at 10 µM [30]: 37%
- growth at 10 µM [31]: 9%
- growth at 100 µM [32]: -14%
- growth at 100 µM [33]: -61%
- growth at 100 µM [34]: -67%
- growth at 100 µM [35]: -43%
- growth at 100 µM [36]: -71%

Structure (SMILES): COc1ccc(-c2cc(/C=C/C(=O)c3ccc(N)cc3)[nH]n2)cc1OC
- GI50 [1]: 1.28 µM
- LC50 [1]: > 100 µM
- TGI [1]: 5.52 µM
- GI50 [2]: 4.21 µM
- TGI [2]: 19.3 µM
- CC50 [2]: 95.6 µM
- GI50 [3]: 4.34 µM
- TGI [3]: 16.5 µM
- CC50 [3]: 46.2 µM
- GI50 [4]: 2.5 µM
- LC50 (lethal concentration, 50% net cell kill) [4]: 82.9 µM
- TGI [4]: 6.94 µM
- GI50 [5]: 3.11 µM
- LC50 [5]: 39.6 µM
- TGI [5]: 10.9 µM
- GI50 [6]: 6.21 µM
- LC50 [6]: > 100 µM
- TGI [6]: > 100 µM
- GI50 [7]: 3.53 µM
- LC50 [7]: 41.3 µM
- TGI [7]: 13.7 µM
- GI50 [8]: 3.71 µM
- LC50 [8]: > 100 µM
- TGI [8]: 19.8 µM
- growth at 0.01 µM [9]: 106%
- growth at 0.01 µM [10]: 96%
- growth at 0.01 µM [11]: 93%
- growth at 0.01 µM [12]: 102%
- growth at 0.01 µM [13]: 92%
- growth at 0.01 µM [14]: 92%
- growth at 0.01 µM [15]: 97%
- growth at 0.01 µM [16]: 99%
- growth at 0.01 µM [17]: 109%
- growth at 0.1 µM [18]: 93%
- growth at 0.1 µM [19]: 108%
- growth at 0.1 µM [20]: 108%
- growth at 0.1 µM [21]: 80%
- growth at 1 µM [22]: 84%
- growth at 1 µM [23]: 88%
- growth at 1 µM [24]: 92%
- growth at 1 µM [25]: 88%
- growth at 1 µM [26]: 87%
- growth at 10 µM [27]: -1%
- growth at 10 µM [28]: -68%
- growth at 10 µM [29]: 24%
- growth at 10 µM [30]: 29%
- growth at 10 µM [31]: 40%
- growth at 100 µM [32]: -5%
- growth at 100 µM [33]: -89%
- growth at 100 µM [34]: -90%
- growth at 100 µM [35]: -58%
- growth at 100 µM [36]: -77%

Source: ChEMBL document CHEMBL4138123, “Design, synthesis and biological evaluation of novel pyrazolochalcones as potential modulators of PI3K/Akt/mTOR pathway and inducers of apoptosis in breast cancer cells” (Eur J Med Chem, 2017)
